# Test results: patent US20190300824A1, “BACTERIAL SPORE COMPOSITIONS FOR […]” (priority 2014, published 2019)
# Bridge positions count the residues as written; N and C are the ends. Square brackets hold non-standard residues; d marks the D form. Peptide text beside a SMILES is read from it. * marks the point of attachment. Ileψ(thiazoline)Cys = CC[C@H](C)[C@H](N)C1=N[C@H](C(=O)*)CS1; dOrn = NCCC[C@@H](N)C(=O)O
# Tested on: Eimeria maxima and Clostridium perfringens
# Assay type: in vivo, Cobb 500 Chicks (Gallus gallus domesticus)
# Conditions: in words
structure (smiles),measurement,value
"CC[C@H](C)[C@H](N)C1=N[C@H](C(=O)N[C@@H](CC(C)C)C(=O)N[C@H](CCC(=O)O)C(=O)N[C@H](C(=O)N[C@H]2CCCCNC(=O)[C@H](CC(N)=O)NC(=O)[C@@H](CC(=O)O)NC(=O)[C@H](Cc3cnc[nH]3)NC(=O)[C@@H](Cc3ccccc3)NC(=O)[C@H]([C@@H](C)CC)NC(=O)[C@@H](CCCN)NC2=O)[C@@H](C)CC)CS1 [Treatment Group 5, Bacitracin] ({Ileψ(thiazoline)Cys}-L[dE]IK[dOrn]I[dF]H[dD]N; lactam 4-C)",weight gain over the infected negative control,significant increase in weight gain
